Test results from ChEMBL document CHEMBL1126151, “A study on the contribution of the 1-phenyl substituent to the molecular electrostatic potentials of some benzazepines in relation to selective dopamine D-1 receptor activity” (J Med Chem, 1992).

Molecular target: Adenylate cyclase
Assay: Compound was tested for the adenylate cyclase stimulation
Assay type: protein assay

| Compound | EC50 |
| --- | --- |
| Oc1cc2c(cc1O)[C@@H](C1CCCCC1)CNCC2 | > 0.00001 M |
| Oc1cc2c(cc1O)CCNCC2 | 5.2e-06 M |
